{
  "source": "patent US20150064234A1",
  "about": "“4-AMINOPYRIDINE AS A THERAPEUTIC AGENT FOR SPINAL MUSCULAR ATROPHY” (THE TRUSTEES OF COLUMBIA UNIVERSITY IN THE CITY OF NEW YORK, priority 2012, published 2015)",
  "key": {"wild-type larvae": {"tested_on": "wild-type larvae", "experiment": "Titration of 4-AP in larval media for tolerability"}, "[1]": {"tested_on": "smn^x7/smn^x7 mutant larvae", "experiment": "NMJ electrophysiology (eEPSP), smn mutant larvae", "format": "in vivo, Drosophila"}, "Drosophila smn mutants": {"tested_on": "Drosophila smn mutants", "experiment": "Rescue of Drosophila smn mutant phenotypes by K+ channel antagonists", "conditions": "treatment with K+ channel antagonist; 4-(dimethylamino)pyridine data not shown"}, "[2]": {"tested_on": "Canton S (CS) control larvae"}, "Shaker channels": {"tested_on": "Shaker channels", "conditions": "at concentration of 1 mM; cited from earlier work"}, "tetrodotoxin toxicity": {"tested_on": "tetrodotoxin toxicity", "conditions": "in vivo; cited from earlier work"}, "MS patients": {"tested_on": "MS patients", "conditions": "cited from earlier work"}, "[3]": {"tested_on": "smn^x7/smn^x7 mutant larvae", "experiment": "Muscle area measurement, smn mutant larvae cultured on 4-AP"}, "[4]": {"tested_on": "other sodium, calcium, and potassium conductances", "conditions": "at concentration of 1 mM; cited from earlier work"}, "[5]": {"tested_on": "smn^x7/smn^x7 mutant larvae", "experiment": "Spontaneous motor rhythm recording, smn mutant larvae", "format": "in vivo, Drosophila"}, "[6]": {"tested_on": "smn^x7/smn^x7 mutant larvae", "experiment": "Larval locomotion assay, smn mutant larvae", "format": "in vivo, Drosophila"}, "[7]": {"tested_on": "canine hereditary motor neuron disease", "conditions": "canine hereditary motor neuron disease (Pinter et al., 1997); cited from earlier work"}, "[8]": {"tested_on": "Canton S (CS) control larvae", "remark": "listed apart in the source"}, "[9]": {"tested_on": "Canton S (CS) control larvae", "experiment": "Muscle area measurement, control larvae cultured on 4-AP"}, "[10]": {"tested_on": "Canton S (CS) control larvae", "remark": "listed apart in the source"}, "[11]": {"conditions": "smn mutants, 2 mM 4-AP, compared with 4-AP treated controls"}, "[12]": {"conditions": "smn^x7/smn^x7 larvae treated with 2 mM 4-AP, ± SEM"}, "[13]": {"conditions": "CS control larvae treated with 2 mM 4-AP, ± SEM"}, "[14]": {"conditions": "control animals, 2 mM 4-AP, P<0.01"}},
  "note": "Entries after “also recorded” stand apart in the source; their conditions may differ.",
  "data": [
    {"smiles": "Nc1ccncc1", "note": "[4-AP, 4-aminopyridine]", "values": [
      {"measurement": "maximum dosage tolerated without lethality", "setting": "wild-type larvae; added to larval media, wild-type larvae", "result": 2, "unit": "mM"},
      {"measurement": "toxicity at maximum tolerated dose", "setting": "wild-type larvae; control animals, 2 mM throughout larval period", "result": "mild systemic toxicity"},
      {"measurement": "reduction of increased NMJ EPSP amplitude", "setting": "[1]; smn mutants treated with 2 mM 4-AP, P<0.001", "result": 27, "unit": "%"},
      {"measurement": "effect on NMJ neurotransmitter release / eEPSP amplitude", "setting": "[1]; [11]", "result": "corrects; also recorded: fully corrected"},
      {"measurement": "eEPSP amplitude", "setting": "[1]; [12]", "result": "32.40 ± 2.48", "unit": "mV"},
      {"measurement": "effect on Drosophila smn mutant phenotypes", "setting": "Drosophila smn mutants", "result": "positively benefitted; also recorded: rescued"},
      {"measurement": "Locomotion", "setting": "[2]; [13]", "result": "3.06 ± 0.40", "unit": "cm/min"},
      {"measurement": "reduction of larval locomotion", "setting": "[2]; [14]", "result": 35, "unit": "%"},
      {"measurement": "inhibition of Shaker channels", "setting": "Shaker channels", "result": "selectively and reversibly inhibits"},
      {"measurement": "effect on tetrodotoxin toxicity", "setting": "tetrodotoxin toxicity", "result": "reverse tetrodotoxin toxicity"},
      {"measurement": "patients with clinically important motor and visual improvements", "setting": "MS patients; 17 temperature-sensitive MS patients, 7.5 to 52.5 mg in one to three daily doses, 1 to 5 days, thirteen of 17", "result": 76, "unit": "%"},
      {"measurement": "side effects", "setting": "MS patients; 17 temperature-sensitive MS patients, 7.5 to 52.5 mg", "result": "No serious side effects"},
      {"measurement": "mean duration of improvements for two consecutive doses", "setting": "MS patients; average 8.53-hour treatment-observation period", "result": 7.07, "unit": "h"},
      {"measurement": "initial responders with long-term benefits", "setting": "MS patients; long-term study (32 months)", "result": "80-90%"},
      {"measurement": "duration of improvements as share of treatment-observation period", "setting": "MS patients; two consecutive doses, average 8.53-hour period", "result": 83, "unit": "%"},
      {"measurement": "increase of muscle surface area compared to untreated smn mutants", "setting": "[3]; smn mutants grown on 2 mM 4-AP media, P<0.001", "result": 66, "unit": "%"},
      {"measurement": "effect on muscle size", "setting": "[3]; smn mutants, 2 mM 4-AP", "result": "increases; also recorded: significantly increased"},
      {"measurement": "Muscle 6 area", "setting": "[3]; smn^x7/smn^x7 larvae treated with 2 mM 4-AP throughout larval period, ± SEM", "result": "29.60 ± 3.09 ×10^3 × μm^2"},
      {"measurement": "effect on other sodium, calcium, and potassium conductances", "setting": "[4]", "result": "without significant effect"},
      {"measurement": "remaining increase in inter-spike interval above controls treated with 4-AP", "setting": "[5]; smn mutants grown on 2 mM 4-AP media, p<0.001", "result": 31, "unit": "%"},
      {"measurement": "effect on defects in motor rhythm", "setting": "[5]; smn mutants, 2 mM 4-AP", "result": "substantially improved; also recorded: substantially corrects; also recorded: fully corrected"},
      {"measurement": "Inter-spike interval", "setting": "[5]; [12]", "result": "89.98 ± 4.98", "unit": "ms"},
      {"measurement": "increase of locomotion", "setting": "[6]; smn mutants grown on 2 mM 4-AP media, P<0.05", "result": 55, "unit": "%"},
      {"measurement": "effect on locomotion", "setting": "[6]; [11]", "result": "corrects; also recorded: significantly increased"},
      {"measurement": "Locomotion", "setting": "[6]; [12]", "result": "2.65 ± 0.10", "unit": "cm/min"},
      {"measurement": "effect on muscle twitch tension", "setting": "[7]", "result": "can improve"},
      {"measurement": "Inter-spike interval", "setting": "[8]; [13]", "result": "68.89 ± 4.23", "unit": "ms"},
      {"measurement": "effect on motor rhythm", "setting": "[8]; control animals, 2 mM 4-AP", "result": "inhibits"},
      {"measurement": "decrease of rhythmic motor activity", "setting": "[8]; [14]", "result": 40, "unit": "%"},
      {"measurement": "Muscle 6 area", "setting": "[9]; CS control larvae treated with 2 mM 4-AP throughout larval period, ± SEM", "result": "38.08 ± 3.49 ×10^3 × μm^2"},
      {"measurement": "effect on muscle size", "setting": "[9]; control / wild-type animals, 2 mM 4-AP", "result": "no effect; also recorded: does not alter; also recorded: did not affect"},
      {"measurement": "eEPSP amplitude", "setting": "[10]; [13]", "result": "26.67 ± 2.91", "unit": "mV"},
      {"measurement": "reduction of NMJ eEPSP amplitudes", "setting": "[10]; control animals, 2 mM 4-AP, P<0.001", "result": 21, "unit": "%"}
    ]},
    {"smiles": "CN(C)c1ccncc1", "note": "[4-(dimethylamino) pyridine]", "values": [
      {"measurement": "effect on Drosophila smn mutant phenotypes", "setting": "Drosophila smn mutants", "result": "rescued"}
    ]}
  ]
}
